Patent US4315010A, “Glaucine phosphate salts” (priority 1979, dated 1982)
Where a name gives a salt, the structure may show the parent alone. Read-outs that look alike come from different tables or passages of the source.

Assays:
[1] = format: physicochemical; details: for Percentage Remaining after 3 months at, 40° C. / Percentage Remaining after 3 months at, 50° C. / Percentage Remaining after 3 months at, Ambient / assay after 12 months: syrup; for Percentage Remaining after 3 months at, 40° C. / Percentage Remaining after 3 months at, 50° C. / Percentage Remaining after 3 months at, Ambient: 131400 min; for assay after 12 months: 525600 min; for percent of original concentration retained in syrup: one month, d,l-glaucine phosphate 0.6 percent, others 0.2 percent, 43800 min
Experimental: Stability of d,l-glaucine phosphate was examined in the syrup vehicle of Example 4.
Syrups containing codeine phosphate, 0.2 percent contained 97.5, 104.5 or 100 percent, respectively, after one month at ambient temperature, 40° C. or 55° C. […] After three months, the percentage amount of antitussive agent remaining was as shown below.

[2] = tested on: mice; assay: Analgesic activity, phenyl-p-quinone mouse writhing test (printed "writing test"); format: in vivo; details: 0.5 h, oral, 30 minutes prior to phenyl-p-quinone challenge
Experimental: Text compounds were evaluated for analgesic activity in the phenyl-p-quinone mouse writing test of Hendershot & Forsaith, J. Pharmacol. Exptl. Therap. 125(3) 237 (1959). The test compounds were administered orally 30 minutes prior to the phenyl-p-quinone challenge. In these operations, the oral ED50 's for d-glaucine. […]

[3] = tested on: guinea pigs; assay: Antitussive test, citric acid aerosol-induced cough, oral dosing; format: in vivo; details: for ED50: Cavia porcellus, po, 1 h; for 95 percent confidence limits of the ED50: antitussive
Experimental: Separate groups of guinea pigs were orally administered various doses of a test compound, or distilled water for a control group. One hour after oral dosing, the guinea pigs were exposed to a 5 percent aerosol of citric acid for a 10 minute test period. The number of cough responses produced during the last five minutes of exposure to the citric acid aerosol was recorded and the dosage effect to suppress coughing in 50 percent of the guinea pigs (ED50) was calculated. An antitussive effect was recorded for a guinea pig when its total number of coughs during the 5 minute test period were at least two standard deviation units below the mean number of coughs per guinea pig in the control group. […];

[4] = tested on: mice; format: in vivo; details: naloxone 100 mg/kg intraperitoneal after last dose
Experimental: Physical dependency liability was evaluated in mice by the procedure of Saelens, et al., Arch. Int. Pharmacodynam, 190:213-218, 1971. In this procedure, mice are administered increasing doses of a test compound at intervals on two consecutive days. The last dosage on the second day is followed by intraperitoneal injection of the morphine antagonist, naloxone, at a dosage of 100 mg/kg, and the mice are observed for characteristic jumping behaviour indicative of opiate withdrawals or morphine antagonism.

[5] = Therapeutic ratio LD50/ED50; format: in vivo; details: mouse LD50, guinea pig ED50
[6] = tested on: monkeys; assay: Abuse potential, self-administration in codeine-habituated monkeys (Deneau et al.); format: in vivo; details: codeine 100 micrograms/kilogram per injection; d,l-glaucine phosphate substituted at 50, 100, 200 and 400 micrograms per kilogram injection
From the text: The abuse potential of d,l-glaucine phosphate was studied in two monkeys in a procedure similar to that described by Deneau, et al., Psychopharmacologia 16(1):30-48, 1969.
In this procedure, the test monkeys are restrained and a catheter inserted into the external jugular vein for injection of test substances in response to pressing a bar lever by the monkey. The test monkeys are first habituated to self-administer codeine at a rate of 100 micrograms/kilogram per injection. The self-administration rate of the two monkeys so trained and habituated was about 100 to 150 lever pushes per two hour session at the 100 microgram codeine level. […]

[7] = Acute lethality in mice; details: mouse, in vivo, oral, mortality within 72 hours
Experimental: In other operations, various dosages of d,l-glaucine phosphate (2:3) were administered to groups mice by the oral route or by intraperitoneal injection, and the dosage which is lethal to 50 percent of the mice (LD50) was calculated from the mortality observations within 72 hours after administration.

[8] = tested on: guinea pigs; assay: Antitussive test, citric acid aerosol-induced cough, intraperitoneal injection; format: in vivo; details: Cavia porcellus, ip
[9] = Solubility in cough syrup vehicle; format: physicochemical; details: cough syrup vehicle of Example 4
Experimental: A cough syrup vehicle formulation was prepared containing the following pharmaceutically-acceptable excipients:
Water g.s. to 4 liters total

[10] = Stability of syrup under continuous light in amber and flint glass bottles; format: physicochemical; details: one month, ambient temperature, continuous light about 2000 Foot-candles, 43800 min
Experimental: In a procedure similar to that of Example 5, syrup formulations were prepared, placed in amber glass bottles and transparent (flint) glass bottles, and held under conditions of ambient temperature with continuous exposure to light. (About 2000 Foot-candles of combined fluorescent and incandescent light, for 24 hours/day.)

[11] = Plasma concentrations of l- or d-glaucine after oral administration; format: in vivo; details: guinea pigs
Experimental: In other operations, l- and d-glaucine phosphate (2:3) were orally administered to separate guinea pigs and plasma concentrations of l- or d-glaucine were measured at intervals after dosing.

[12] = listed as d,1-Glaucine . HBr, hydrobromide

Compound: COc1cc2c(cc1OC)-c1c(OC)c(OC)cc3c1C(C2)N(C)CC3 (racemic) [d,l-glaucine hydrobromide]
- Percentage Remaining after 3 months at, 40° C. ([1]; 40° C., listed as d,1-Glaucine . HBr, hydrobromide): 93.3 Percentage
- Percentage Remaining after 3 months at, 50° C. [1, 12]: 91.4 Percentage
- Percentage Remaining after 3 months at, Ambient [1, 12]: 100.8 Percentage
- assay after 12 months ([1]; 55° C., hydrobromide): 87.3%
- percent of original concentration retained in syrup ([1]; 40° C., hydrobromide): 96%
- percent of original concentration retained in syrup ([1]; 55° C., hydrobromide): 89.5%
- percent of original concentration retained in syrup ([1]; ambient temperature, hydrobromide): 99%

Compound: COc1cc2c(cc1OC)-c1c(OC)c(OC)cc3c1C(C2)N(C)CC3 (racemic) [d,l-glaucine phosphate, d,l-Glaucine Phosphate]
- ED50 [2]: 23 mg/kg
- ED50 ([3]; restated in the description, read-out: oral ED50, antitussive): 17.8 mg/kg
- 95 percent confidence limits of the ED50 [3]: 6.0-53.1 milligrams per kilogram
- mice jumping after naloxone treatment [4]: no jumping behaviour in any of the eight mice tested
- therapeutic ratio (LD50/ED50) ([5]; intraperitoneal): 10
- therapeutic ratio (LD50/ED50) ([5]; oral antitussive activity): 38
- Percentage Remaining after 3 months at, 40° C. ([1]; 40° C.): 101.1 Percentage
- Percentage Remaining after 3 months at, 50° C. [1]: 98.7 Percentage
- Percentage Remaining after 3 months at, Ambient [1]: 101.6 Percentage
- assay after 12 months ([1]; 55° C., listed as phosphate salt): 101.8%
- percent of original concentration retained in syrup ([1]; 40° C.): 100.0%
- percent of original concentration retained in syrup ([1]; 55° C.): 98.4%
- percent of original concentration retained in syrup ([1]; ambient temperature): 101.3%
- monkey response rate (self-administration) [6]: 10-20 responses/two hour session
- LD50 at 72 h [7]: ≥ 681 mg/kg
- ED50 [8]: 17.3 mg/kg
- solubility [9]: 10000 µg/mL
- solubility in cough syrup vehicle per 5 milliliter dosage unit [9]: about 50 milligrams per 5 milliliter dosage unit
- assay of syrup in amber glass bottles ([10]; amber glass): 97.7%
- assay of syrup in transparent (flint) glass bottles ([10]; flint glass): 90%

Compound: COc1ccc2c3c1O[C@H]1[C@@H](O)C=C[C@H]4[C@@H](C2)N(C)CC[C@@]341 [codeine, reference compound]
- monkey response rate (self-administration) [6]: 100-150 responses/two hour session

Compound: COc1cc2c(cc1OC)-c1c(OC)c(OC)cc3c1[C@@H](C2)N(C)CC3 [l-glaucine phosphate, l-glaucine phosphate (2:3)]
- time within which high plasma levels of glaucine were produced [11]: ≤ 15 min
- ED50 ([3]; one hour before 5 percent citric acid aerosol, read-out: ED50, dosage effect to suppress coughing in 50 percent of the guinea pigs): 10.9 mg/kg
- 95 percent confidence limits of the ED50 [3]: 0.4-33.8 milligrams per kilogram

Compound: COc1cc2c(cc1OC)-c1c(OC)c(OC)cc3c1[C@H](C2)N(C)CC3 [d-glaucine phosphate, reference compound]
- ED50, dosage effect to suppress coughing in 50 percent of the guinea pigs ([3]; one hour before 5 percent citric acid aerosol, 60 min): 170.1 milligrams per kilogram

Compound: COc1ccc2c3c1O[C@H]1[C@@H](O)C=C[C@H]4[C@@H](C2)N(C)CC[C@@]341 [codeine phosphate]
- 95 percent confidence limits of the ED50 [3]: 52.3-232.6 milligrams per kilogram
- mice jumping after naloxone treatment [4]: 2 of 6
- total jumps after naloxone treatment [4]: 23 jumps total
- Percentage Remaining after 3 months at, 40° C. ([1]; 40° C.): 101.1 Percentage
- Percentage Remaining after 3 months at, 50° C. [1]: 88.4 Percentage
- Percentage Remaining after 3 months at, Ambient [1]: 101.3 Percentage
- percent of original concentration retained in syrup ([1]; 40° C.): 104.5%
- percent of original concentration retained in syrup ([1]; 55° C.): 100%
- percent of original concentration retained in syrup ([1]; ambient temperature): 97.5%
